This note sets out measurements from ChEMBL document CHEMBL1201862, “PubChem BioAssay data set” (2004).

Active and inactive are the calls of the source.

The test system of one assay is H4. The experiment in a line: Luminescence Cell-Based Dose Response HTS to Identify Activators of 5'UTR Stem-Loop Driven Prion Protein mRNA Translation in H4 Neuroglioblastoma Cells. [Related pubchem assays: 1829 (Project Summary), 1814 (Primary HTS)]. Format: functional. The following applies: Homo sapiens.
Assay [1] in a line: Luminescence Cell-Based Dose Response HTS to Identify Activators of Luciferase Translation or Activity in H4 […] Cells. [Related pubchem assays: 1829 (Project Summary), 1814 (Primary HTS)]. Format: functional.
Assay [2] deals with T1, RNA-binding protein pos-1 (Caenorhabditis elegans, UniProt G5EF15).
T1 sequence (G5EF15 whole entry): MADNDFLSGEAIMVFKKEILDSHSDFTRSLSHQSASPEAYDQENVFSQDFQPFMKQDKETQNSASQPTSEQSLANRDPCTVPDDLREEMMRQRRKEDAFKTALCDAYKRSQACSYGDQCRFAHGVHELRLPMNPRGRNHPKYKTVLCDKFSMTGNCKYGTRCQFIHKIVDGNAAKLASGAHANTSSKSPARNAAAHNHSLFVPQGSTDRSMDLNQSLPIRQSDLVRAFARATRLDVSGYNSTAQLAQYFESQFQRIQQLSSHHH
The assay can be described thus: disruptors of C. elegans POS-1 RNA interaction – biochemical, fluorescence polarization, dose response (AID 1964).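 Further: purified POS-1 fused to maltose binding protein made in E. coli; potency of compounds blocking POS-1 binding to fluorescent RNA.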 On the technique in general: In fluorescence polarisation assays a small probe gives low polarisation when free and higher when bound to something large.

In assay [3] the target is T2, Zinc finger protein mex-5 (Caenorhabditis elegans, UniProt Q9XUB2).
T2 sequence (Q9XUB2 whole entry): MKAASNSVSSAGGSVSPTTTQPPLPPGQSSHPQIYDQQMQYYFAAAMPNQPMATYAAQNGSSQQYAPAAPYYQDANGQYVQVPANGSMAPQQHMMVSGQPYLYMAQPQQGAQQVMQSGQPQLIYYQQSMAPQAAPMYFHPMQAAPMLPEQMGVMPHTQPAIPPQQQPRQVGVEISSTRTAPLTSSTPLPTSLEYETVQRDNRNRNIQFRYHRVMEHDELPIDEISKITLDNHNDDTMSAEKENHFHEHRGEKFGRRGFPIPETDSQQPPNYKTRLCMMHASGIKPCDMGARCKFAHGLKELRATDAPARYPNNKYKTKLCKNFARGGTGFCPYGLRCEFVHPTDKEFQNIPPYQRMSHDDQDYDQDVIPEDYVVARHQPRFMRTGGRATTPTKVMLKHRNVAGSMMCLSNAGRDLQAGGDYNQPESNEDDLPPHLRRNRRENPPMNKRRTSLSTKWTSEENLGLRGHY
The experiment in a line: potency of MEX-5 RNA-binding blockers – biochemical, C. elegans, fluorescence polarization, dose response (AID 1960).

Another assay addresses T3, Cytochrome P450 1A2 (Homo sapiens, UniProt P05177).
T3 sequence (P05177 whole entry): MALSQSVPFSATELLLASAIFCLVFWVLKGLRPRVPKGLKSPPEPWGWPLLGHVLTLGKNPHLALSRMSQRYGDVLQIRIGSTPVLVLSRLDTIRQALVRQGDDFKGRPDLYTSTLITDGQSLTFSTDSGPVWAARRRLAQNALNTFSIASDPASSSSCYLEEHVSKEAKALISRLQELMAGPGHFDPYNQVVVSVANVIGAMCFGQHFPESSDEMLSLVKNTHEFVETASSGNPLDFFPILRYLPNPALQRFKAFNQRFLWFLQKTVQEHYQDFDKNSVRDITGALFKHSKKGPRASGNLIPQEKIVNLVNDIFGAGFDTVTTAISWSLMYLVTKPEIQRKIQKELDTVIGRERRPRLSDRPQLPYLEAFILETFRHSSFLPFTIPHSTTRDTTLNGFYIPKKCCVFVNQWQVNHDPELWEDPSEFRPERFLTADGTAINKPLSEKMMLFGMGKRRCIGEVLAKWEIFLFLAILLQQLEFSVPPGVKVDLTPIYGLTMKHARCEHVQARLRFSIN

For assay [4], the target named is FAD-linked sulfhydryl oxidase ALR (Homo sapiens, UniProt P55789). The assay can be described thus: ALR-catalysed DTT oxidation blockers – biochemical, H2O2 detection, luminescence, cherry-pick, dose response (AID 493248).
FAD-linked sulfhydryl oxidase ALR, sequence (P55789 whole entry): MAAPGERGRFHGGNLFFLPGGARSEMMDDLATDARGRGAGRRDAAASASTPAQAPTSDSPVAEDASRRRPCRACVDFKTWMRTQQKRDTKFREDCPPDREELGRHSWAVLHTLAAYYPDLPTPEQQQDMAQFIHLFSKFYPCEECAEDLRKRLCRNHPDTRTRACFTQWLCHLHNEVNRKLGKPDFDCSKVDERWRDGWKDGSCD
Assay [5] concerns the target T4, Rac GTPase-activating protein 1 (Homo sapiens, UniProt Q9H0H5).
T4 sequence (Q9H0H5 whole entry): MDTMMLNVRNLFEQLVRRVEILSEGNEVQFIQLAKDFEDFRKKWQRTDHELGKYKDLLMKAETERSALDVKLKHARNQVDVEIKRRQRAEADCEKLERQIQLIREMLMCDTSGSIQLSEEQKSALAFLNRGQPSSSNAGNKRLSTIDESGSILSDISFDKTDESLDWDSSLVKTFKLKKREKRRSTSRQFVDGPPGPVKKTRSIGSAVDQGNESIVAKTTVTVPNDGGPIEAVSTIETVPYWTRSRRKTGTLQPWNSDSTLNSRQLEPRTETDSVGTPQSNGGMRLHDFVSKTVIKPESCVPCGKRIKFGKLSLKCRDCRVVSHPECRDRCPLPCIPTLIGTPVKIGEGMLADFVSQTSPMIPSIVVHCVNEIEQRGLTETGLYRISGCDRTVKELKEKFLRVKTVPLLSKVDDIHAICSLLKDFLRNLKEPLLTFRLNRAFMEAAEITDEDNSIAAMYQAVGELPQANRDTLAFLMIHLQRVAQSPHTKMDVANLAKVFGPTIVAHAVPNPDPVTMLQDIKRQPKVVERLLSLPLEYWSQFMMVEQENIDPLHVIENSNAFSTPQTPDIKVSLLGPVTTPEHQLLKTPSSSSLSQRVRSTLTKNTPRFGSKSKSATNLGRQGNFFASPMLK
The experiment in a line: blockers of MgcRacGAP-driven Rac1 GTP hydrolysis – biochemical, ADP Hunter fluorescence, primary and confirmatory, confirmation (AID 624330). Format: functional.

The target in another assay is Cytochrome P450 2C19 (Homo sapiens, UniProt P33261). The assay can be described thus: Cytochrome panel assay with activity outcomes. Panel member name: p450-cyp2c19 Compounds with AC50 equal or less than 10 uM are considered active. Format: functional. Conditions: read-out: AC50.
Cytochrome P450 2C19, sequence (P33261 whole entry): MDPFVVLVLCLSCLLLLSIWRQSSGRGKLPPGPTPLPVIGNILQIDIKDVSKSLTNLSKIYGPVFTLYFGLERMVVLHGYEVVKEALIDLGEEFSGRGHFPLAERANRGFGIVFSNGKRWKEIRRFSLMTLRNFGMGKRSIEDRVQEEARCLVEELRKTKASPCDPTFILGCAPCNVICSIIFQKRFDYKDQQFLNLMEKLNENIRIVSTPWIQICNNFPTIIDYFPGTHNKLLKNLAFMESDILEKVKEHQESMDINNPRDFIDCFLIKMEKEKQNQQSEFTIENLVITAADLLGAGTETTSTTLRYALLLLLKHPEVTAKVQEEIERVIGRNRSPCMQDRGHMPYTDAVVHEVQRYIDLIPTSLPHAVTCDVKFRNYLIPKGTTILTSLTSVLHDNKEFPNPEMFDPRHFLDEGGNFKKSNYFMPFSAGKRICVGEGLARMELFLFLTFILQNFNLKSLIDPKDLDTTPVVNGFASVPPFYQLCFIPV
The next assay addresses Cytochrome P450 2C9 (Homo sapiens, UniProt P11712).
The target in a further assay is Cytochrome P450 2D6 (Homo sapiens, UniProt P10635).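 Further: CYP2D6 member of a cytochrome P450 panel assay.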
Cytochrome P450 2D6, sequence (P10635 whole entry): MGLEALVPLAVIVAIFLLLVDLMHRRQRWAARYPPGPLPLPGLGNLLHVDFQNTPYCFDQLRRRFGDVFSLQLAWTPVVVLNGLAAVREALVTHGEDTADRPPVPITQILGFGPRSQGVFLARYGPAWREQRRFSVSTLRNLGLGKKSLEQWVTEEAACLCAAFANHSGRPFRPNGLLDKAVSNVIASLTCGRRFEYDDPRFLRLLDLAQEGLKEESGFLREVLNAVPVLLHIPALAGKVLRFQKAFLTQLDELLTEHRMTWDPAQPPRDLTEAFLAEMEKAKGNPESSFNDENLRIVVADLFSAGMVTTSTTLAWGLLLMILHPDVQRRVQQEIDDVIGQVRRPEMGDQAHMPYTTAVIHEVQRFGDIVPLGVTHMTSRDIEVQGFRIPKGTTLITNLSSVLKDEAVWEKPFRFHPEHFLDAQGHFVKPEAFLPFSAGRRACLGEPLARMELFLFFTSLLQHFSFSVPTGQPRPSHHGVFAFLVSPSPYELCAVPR
The nature of assay [6]: Trypanosoma cruzi growth suppression in host cells – NIH3T3 host cells, beta-gal luminescence, confirmation (AID 2044).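 Further: intracellular parasites grown in NIH/3T3 mouse fibroblasts as host cells; luminescent beta-galactosidase reporter signal from transgenic T. cruzi replicating inside host cells; inhibitors lower the luminescence signal.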 In kind it is functional, cell-based.
Another assay concerns Streptococcus. The assay can be described thus: GAS UMAA2166 growth inhibition – luminescence, BacTiterGlo, counter-screen for streptokinase expression inhibitor project, dose response (AID 1915).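 Further: potency for reduction of bacterial viability or growth.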 Format: functional, organism-based.
Assay [7] concerns Streptococcus sp. 'group A'. The experiment in a line: Streptococcus pyogenes SK(-)GAS viability under kanamycin – luminescence, BacTiterGlo, confirmation, counter-screen for streptokinase expression inhibitor project, dose response (AID 1900). Format: functional, organism-based.
A further assay addresses T5, Streptokinase A (Streptococcus pyogenes serotype M1, UniProt P10520).
T5 sequence (P10520 whole entry): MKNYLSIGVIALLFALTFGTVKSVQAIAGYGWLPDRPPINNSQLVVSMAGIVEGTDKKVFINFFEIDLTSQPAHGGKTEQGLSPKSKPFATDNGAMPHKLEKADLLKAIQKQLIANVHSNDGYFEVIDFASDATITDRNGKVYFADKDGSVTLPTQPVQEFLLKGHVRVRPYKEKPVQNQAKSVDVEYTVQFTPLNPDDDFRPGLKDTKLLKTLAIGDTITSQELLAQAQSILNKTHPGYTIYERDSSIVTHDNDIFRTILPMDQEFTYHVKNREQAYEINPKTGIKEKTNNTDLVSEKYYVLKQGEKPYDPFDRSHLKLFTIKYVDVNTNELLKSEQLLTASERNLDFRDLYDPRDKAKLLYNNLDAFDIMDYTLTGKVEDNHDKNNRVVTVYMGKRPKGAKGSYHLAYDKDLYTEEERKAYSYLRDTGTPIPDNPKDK
The assay can be described thus: viability-normalized secreted streptokinase activity reduction – plasminogen activation absorbance, OD405, dose response (AID 1914).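 Further: secreted streptokinase activity via plasminogen activation per viability signal from cell pellet.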 Format: functional, Streptococcus pyogenes M1 GAS.

Assay [8] can be described thus: NIH3T3 cell viability loss – ATP luminescence, mouse fibroblasts, counter-screen, dose response (AID 2010).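 Further: cells exposed to compound for about 90 hours before reading.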 Format: functional, cell-based.

Cytochrome P450 2C9, sequence (P11712 whole entry): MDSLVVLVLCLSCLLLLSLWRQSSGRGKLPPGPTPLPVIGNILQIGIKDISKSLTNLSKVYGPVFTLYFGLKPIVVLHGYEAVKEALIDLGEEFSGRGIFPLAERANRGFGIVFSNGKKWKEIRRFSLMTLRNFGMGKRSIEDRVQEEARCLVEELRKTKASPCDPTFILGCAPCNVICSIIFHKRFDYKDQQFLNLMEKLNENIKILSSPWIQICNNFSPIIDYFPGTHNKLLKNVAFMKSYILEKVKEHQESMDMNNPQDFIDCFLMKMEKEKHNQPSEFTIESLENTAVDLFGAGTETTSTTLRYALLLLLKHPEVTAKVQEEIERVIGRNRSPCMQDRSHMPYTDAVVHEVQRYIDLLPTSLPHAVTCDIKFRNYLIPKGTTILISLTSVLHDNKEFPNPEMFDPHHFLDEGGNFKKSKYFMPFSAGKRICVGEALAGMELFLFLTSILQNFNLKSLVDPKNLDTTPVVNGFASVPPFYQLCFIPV

Usually EC50 stands for the concentration at which the effect is half-maximal. For `Cc1ccc(NC(=O)CCOc2ccccc2)cc1`, the EC50 with H4 is > 120 µM (not active); in assay [1], 92.6 µM (active).

For the compound `O=C(Nc1nccs1)c1ccc(-c2ccc([N+](=O)[O-])cc2)o1`, the results for the half-maximal effective concentration (EC50) in assay [2] and in assay [3] were 12.3 µM (inconclusive) and 6.66 µM (active), respectively.

As a reminder, the AC50 is the midpoint of the concentration-response curve, whichever way the signal moves. Consider `CN/C(=N\c1ccc(C2=NNC(=O)C[C@@H]2C)cc1)NC#N`, for which, on Cytochrome P450 1A2, the AC50 is 39.8 µM (inconclusive).

What is called IC50 is the concentration needed to halve the response being measured. Take `CCN(CC)c1ccc(NC(=O)CN2CCN(c3ccccn3)CC2)cc1`: in assay [4], the concentration at half-maximal activity (AC50) was 0.384 µM (active). The half-maximal inhibitory concentration (IC50) in assay [5] was 131 µM (active).

On to `CCNc1ncc2nc(-c3cn(C)c4ccccc34)c(=O)n(Cc3cccc(OC)c3)c2n1`, for which the concentration at half-maximal activity (AC50) at Cytochrome P450 1A2 was 12.6 µM (inconclusive).

Regarding `CCOc1cc2c(cc1/C=C(/C#N)c1ccc(C(=O)O)cc1)OCO2`, the EC50 in [2] and in [3] was > 300 µM (not active) in each case.

Turning to `O=C(c1ccco1)N1CCC2(CCCN(C(c3ccccc3)c3ccccc3)C2)CC1`, the half-maximal activity concentration (AC50) at Cytochrome P450 1A2 is 15.8 µM (inconclusive); on Cytochrome P450 2C19 it was 39.8 µM (inconclusive).

With `CCc1ccc(CNc2ccc(N3CCN(C(C)=O)CC3)cc2)cc1`, the AC50 in assay [4] is 0.445 µM (active). Also, the IC50 in assay [5] was 9.44 µM (active).

`COC(=O)[C@H](Cc1ccccc1)NC(=O)N1CCN(c2ccccc2)CC1`: in [4], the half-maximal activity concentration (AC50) was 6.26 µM (active).

Take `CCOC(=O)c1c(NC(=O)CCC(=O)N2CCOCC2)sc2c1CC(C)(C)OC2`: the AC50 at Cytochrome P450 1A2 is 15.8 µM (inconclusive); at Cytochrome P450 2C19, 0.224 µM (inconclusive); at Cytochrome P450 2C9 it was 0.00562 µM (inconclusive).

Turning to `Cn1cnc2cc(NCc3ccc(Cl)cc3)ccc21`, the AC50 in [4] was 5.49 µM (active).

As to `COc1cc(C)cc2c(-c3c(O)cc(O)c4c3C[C@H](C)N[C@@H]4C)cc(-c3cc(-c4c(O)cc(O)c5c4C[C@H](C)N[C@@H]5C)c4cc(C)cc(OC)c4c3O)c(O)c12`, the AC50 is 5.01 µM (inconclusive) on Cytochrome P450 2D6 and 0.2 µM (inconclusive) at Cytochrome P450 1A2.

`COc1ccc(-c2nnn(CC(=O)N(CC(=O)NCCC(C)C)Cc3cccs3)n2)cc1OC`: the half-maximal activity concentration (AC50) at Cytochrome P450 1A2 was 31.6 µM (inconclusive); at Cytochrome P450 2C9, 7.08 µM (inconclusive).

Take `CC(NC(=O)c1ccc(N2CCCC2)c([N+](=O)[O-])c1)c1ccc(S(N)(=O)=O)cc1` (stereo not given): the AC50 in assay [4] is 3.51 µM (active).

`COc1ccc(Oc2ncc3ncc(=O)n(CCc4ccccc4)c3n2)cc1`: on Cytochrome P450 1A2, the AC50 is 0.631 µM (inconclusive).

With `COc1ccc(N2CCN(C(=O)Cc3cccs3)CC2)cc1`, the concentration at half-maximal activity (AC50) in assay [4] was 2.36 µM (active).

As for `COc1ccc(C2(CNC(=O)/C=C/c3ccco3)CCCC2)cc1OC`, the figures for the AC50 at Cytochrome P450 1A2 and at Cytochrome P450 2C9 were 22.4 µM (inconclusive) and 10 µM (inconclusive), respectively.

In the case of `Cc1cccc(NC(=O)c2cccc(N3C(=O)C4C5CCC(C5)C4C3=O)c2)c1C` (stereo not given), the AC50 at Cytochrome P450 1A2 was 25.1 µM (inconclusive); on Cytochrome P450 2C9, 22.4 µM (inconclusive).

With `CCC(C)Nc1nc2c(c(=O)n(C)c(=O)n2C)n1Cc1cccc(C)c1` (stereo not given), the AC50 in assay [4] is 8.61 µM (active).

As for `O=C(CN1CCN(S(=O)(=O)c2ccc(F)cc2)CC1)Nc1ccc2c(c1)OCO2`, the half-maximal activity concentration (AC50) is 5.01 µM (inconclusive) on Cytochrome P450 2D6, 25.1 µM (inconclusive) on Cytochrome P450 1A2, 3.98 µM (inconclusive) on Cytochrome P450 2C19 and 11.2 µM (inconclusive) at Cytochrome P450 2C9.

As to `COc1cc(/C=N/NC(=O)c2cccc([N+](=O)[O-])c2)cc(OC)c1O`, the concentration at half-maximal activity (AC50) in assay [4] was 2.04 µM (active).

Consider `COc1cccc(N/N=C/c2cccc(Br)c2O)c1`, for which the EC50 in [6] is 3.27 µM (active); in the assay with Streptococcus, > 150 µM (not active); in [7], 12.5 µM (active); on Streptokinase A, 19.6 µM (active); in [8], > 60 µM (not active). For the same compound, in [4], the concentration at half-maximal activity (AC50) is 1.67 µM (active).

Regarding `Cc1ccc(-c2nc(N/N=C/c3ccccc3[N+](=O)[O-])c3ccccc3n2)cc1`, in the assay with H4, the 50% effective concentration (EC50) is 0.595 µM (active).

With `O=C(N/N=C/c1ccc2nccnc2c1)c1ccccc1O`, the EC50 in the assay on H4 is 44.2 µM (active); in [1], 48.8 µM (active).

For the compound `COc1ccccc1N1CCN(C[C@@H](C(=O)NC(C)(C)C)c2ccccc2)CC1`, the AC50 was 20 µM (inconclusive) on Cytochrome P450 2D6 and 0.631 µM (inconclusive) on Cytochrome P450 1A2.

As for `N#CC1=C(N)n2c(s/c(=C\c3cccs3)c2=O)=C(C#N)C1c1cccs1` (stereo not given), the AC50 in assay [4] was 5.68 µM (active).

As to `CN1CCc2cc(Cl)c(O)cc2[C@H](c2ccccc2)C1`, the half-maximal activity concentration (AC50) on Cytochrome P450 1A2 is 31.6 µM (inconclusive).

On to `CCCCCCCC/C=C\CCCCCCCC(=O)NCc1ccc(O)c(OC)c1` [OLVANIL], for which the AC50 at Cytochrome P450 1A2 is 20 µM (inconclusive).
